Measured values published in patent EP0705816B1, “BENZENE DERIVATIVE USEFUL FOR ISCHEMIC DISEASES” (Chugai Seiyaku Kabushiki Kaisha, priority 1993, dated 1995).
Where two headings read alike, the source gives them in different places.

Key:
ventricular myocytes [1] = test: Inhibitory action on calcium overload in vitro, Method B: veratridine-treated myocytes; format: cell-based, male Sprague-Dawley rat; details: 50 µg/ml of veratridine, read-out: Concentration at Which Cells Survived Almost Completely
Experimental: (§1) Incubated ventricular myocytes were prepared from the heart of male Sprague-Dawley rat weighing 300 to 500 g, using an enzyme-perfusion method. […]
The efficacy was evaluated in the same manner as in Method A, except for using 50 µg/ml of veratridine in place of veratrine (100 µg/ml).

rabbit LDL [2] = test: Inhibitory action on lipid peroxidation in vitro, Method A: oxidation of LDL by soybean lipoxygenase, fluorescence of the LDL fraction; format: biochemical; details: fluorescence intensity of LDL fraction, SLO 40 µg/ml, 37°C, 24 hours
Experimental: A test compound was added to rabbit LDL prepared according to the method of Havel, et al. (Havel RJ et al., J. Clin. Invest., 34, 1345 (1955)), and then a soybean lipoxygenase type-IS (SLO) was added to a final concentration of 40 µg/ml. Oxydation of LDL was carried out by incubating at 37°C in a CO2 incubator for 24 hours. The oxidized LDL solution was analyzed by gel-permeation chromatography, and the fluorescence intensity of the LDL fraction was measured at an excitation wavelength of 360 nm and an emission wavelength of 430 nm.

ventricular myocytes [3] = test: Inhibitory action on calcium overload in vitro, Method A: veratrine-treated myocytes; format: cell-based, male Sprague-Dawley rat; set-up: key: ++: The cells survived almost completely at 10^-7 M.; The cells died almost completely at 10 M^-8 M; details: compound 30 minutes, then 100 µg/ml of veratrine; shape of cells observed five minutes later
Experimental: as §1

rabbit LDL [4] = test: Inhibitory action on lipid peroxidation in vitro, Method B: CuSO4 oxidation of LDL, TBARS by fluorometry; format: biochemical; details: 1 x 10^-5 M, CuSO4 1 µM, 37°C, 24 hours, 10 µM
Experimental: A test compound was added to rabbit LDL prepared according to the method of Havel, et al. (Havel RJ, et al., J. Clin. Invest., 34, 1345 (1955)), and then CuSO4 was added to a final concentration of 1 µM. Oxidation of LDL was performed by shaking at 37°C for 24 hours. The generated TBARS was measured by the method of Yagi utilizing fluorometry (Yagi, K., Biochem. Med., 15, 212 (1976)).

[5] = Rattus norvegicus, Ventricular myocyte

Structure (SMILES) | Percent (%) of Control (rabbit LDL [2]; 5 x 10^-6 M) [%] | Percent (%) of Control (rabbit LDL [2]; 5 x 10^-7 M, 0.5 µM) [%] | Survival Rate of Cells (ventricular myocytes [3]) | % of Control (rabbit LDL [4]) [%] | also measured
CC1SC(c2cc(C(C)(C)C)c(O)c(C(C)(C)C)c2)N(CCCN(C)CCOc2ccc3c(c2)OCO3)C1=O (single isomer, unassigned; (+)) [Compound (74), (+)-2,5-Cis-2-(3,5-di-tert-butyl-4-hydroxyphenyl)-3-[3-[N-methyl-N-[2-(3,4-methylenedioxyphenoxy)ethyl]amino]propyl]-5-methyl-1,3-thiazolidin-4-one] |  |  |  |  | minimal effective concentration (ventricular myocytes [1]; [5]): 0.32 µM
COc1ccc([C@@H]2Sc3ccccc3N(CCN(C)C)C(=O)[C@@H]2OC(C)=O)cc1 [Diltiazem, reference compound] | 110.7 | 109.1 | - | 96.9 | minimal effective concentration (ventricular myocytes [1]; Rattus norvegicus, Ventricular myocyte, symbol defined by footnote): > 1 µM
CN(CCCN1C(=O)C(CC(=O)N(C)C)SC1c1cc(C(C)(C)C)c(O)c(C(C)(C)C)c1)CCOc1ccc2c(c1)OCO2 (centres unmarked) [Compound (51)] |  |  |  | 16.6 | 
CN(CCCN1C(=O)CSC1c1cc(C(C)(C)C)c(O)c(C(C)(C)C)c1)CCOc1ccc2c(c1)OCO2 (centres unmarked) [Compound (26), 2-(3,5-Di-tert-butyl-4-hydroxyphenyl)-3-[3-[N-methyl-N-[2-(3,4-methylenedioxyphenoxy)ethyl]amino]propyl]-1,3-thiazolidin-4-one] |  |  | ++ |  | 
CN(CCCN1C(=S)CSC1c1cc(C(C)(C)C)c(O)c(C(C)(C)C)c1)CCOc1ccc2c(c1)OCO2 (centres unmarked) [Compound (57), 2-(3,5-Di-tert-butyl-4-hydroxyphenyl)-3-[3-[N-methyl-N-[2-(3,4-methylenedioxyphenoxy)ethyl]amino]propyl]-1,3-thiazolidin-4-thione] | 11.3 | 22.8 |  | 23.0 | 
COc1ccc(CCN(C)CCCN2C(=O)CSC2c2cc(C(C)(C)C)c(O)c(C(C)(C)C)c2)cc1OC (centres unmarked) [Compound (20)] | 0.6 | 8.7 | + | 21.3 | 
CC1SC(c2cc(C(C)(C)C)c(O)c(C(C)(C)C)c2)N(CCCN(C)CCOc2ccc3c(c2)OCO3)C1=O (centres unmarked) [Compound (41), 2-(3,5-Di-tert-butyl-4-hydroxyphenyl)-3-[3-[N-methyl-N-[2-(3,4-methylenedioxyphenoxy)ethyl]amino]propyl]-5-methyl-1,3-thiazolidin-4-one] | 6.2 | 18.3 |  | 26.3 | 
CN(CCCOc1ccc2c(c1)OCO2)CCCN1C(=O)CSC1c1cc(C(C)(C)C)c(O)c(C(C)(C)C)c1 (centres unmarked) [Compound (17)] | 3.9 | 16.4 |  | 21.0 | minimal effective concentration (ventricular myocytes [1]; [5]): 0.32 µM
CCOC(=O)CC1SC(c2cc(C(C)(C)C)c(O)c(C(C)(C)C)c2)N(CCCN(C)CCOc2ccc3c(c2)OCO3)C1=O (centres unmarked) [Compound (46), 2-(3,5-Di-tert-butyl-4-hydroxyphenyl)-3-[3-[N-methyl-N-[2-(3,4-methylenedioxyphenoxy)ethyl]amino]propyl]-5-ethoxycarbonylmethyl-1,3-thiazolidin-4-one] |  |  |  | 20.4 | 
CC1SC(c2cc(C(C)(C)C)c(O)c(C(C)(C)C)c2)N(CCCN(C)CCOc2ccc3c(c2)OCO3)C1=O (single isomer, unassigned; (-)) [Compound (75), (-)-2,5-Cis-2-(3,5-di-tert-butyl-4-hydroxyphenyl)-3-[3-[N-methyl-N-[2-(3,4-methylenedioxyphenoxy)ethyl]amino]propyl]-5-methyl-1,3-thiazolidin-4-one] |  |  |  |  | minimal effective concentration (ventricular myocytes [1]): 0.32 µM
CN(CCCCN1C(=O)CSC1c1cc(C(C)(C)C)c(O)c(C(C)(C)C)c1)CCOc1ccc2c(c1)OCO2 (centres unmarked) [Compound (8)] |  |  | ++ |  | 
CN(CCCCCN1C(=O)CSC1c1cc(C(C)(C)C)c(O)c(C(C)(C)C)c1)CCOc1ccc2c(c1)OCO2 (centres unmarked) [Compound (9)] | 5.9 | 13.5 | ++ | 26.4 | 
CC(C)(C)c1cc(C2SCC(=O)N2CCCN2CCC(Oc3ccc4c(c3)OCO4)CC2)cc(C(C)(C)C)c1O (centres unmarked) [Compound (34)] |  |  |  | 20.5 | minimal effective concentration (ventricular myocytes [1]; [5]): 0.32 µM
CCN(CCCN1C(=O)CSC1c1cc(C(C)(C)C)c(O)c(C(C)(C)C)c1)CCOc1ccc2c(c1)OCO2 (centres unmarked) [Compound (12)] | 6.4 | 16.8 | ++ | 25.9 | 
CN(CCCN1C(=O)C(CCO)SC1c1cc(C(C)(C)C)c(O)c(C(C)(C)C)c1)CCOc1ccc2c(c1)OCO2 (centres unmarked) [Compound (49), 2-(3,5-Di-tert-butyl-4-hydroxyphenyl)-3-[3-[N-methyl-N-[2-(3,4-methylenedioxyphenoxy)ethyl]amino]propyl]-5-(2-hydroxyethyl)-1,3-thiazolidin-4-one] |  |  |  | 15.7 | 
C[C@H]1S[C@H](c2cc(C(C)(C)C)c(O)c(C(C)(C)C)c2)N(CCCN(C)CCOc2ccc3c(c2)OCO3)C1=O (relative stereo) [Compound (72), 2,5-Trans-2-(3,5-di-tert-butyl-4-hydroxyphenyl)-3-[3-[N-methyl-[2-(3,4-methylenedioxyphenoxy)ethyl]amino]propyl]-5-methyl-1,3-thiazolidin-4-one] |  |  |  |  | minimal effective concentration (ventricular myocytes [1]; [5]): 0.32 µM
CN(CCCN1C(=O)CSC1c1cc(C(C)(C)C)c(O)c(C(C)(C)C)c1)CCOc1ccc2c(c1)OCO2 (single isomer, unassigned; (-)) [Compound (71), (-)-2-(3,5-Di-tert-butyl-4-hydroxyphenyl)-3-[3-[N-methyl-N-[2-(3,4-methylenedioxyphenoxy)ethyl]amino]propyl]-1,3-thiazolidin-4-one] |  | 12.7 |  | 23.8 | Percent (%) of Control (rabbit LDL [2]; 5 x 10^-6 M, 5 µM): 2.8%
CN(CCCN1C(=O)CSC1c1cc(C(C)(C)C)c(O)c(C(C)(C)C)c1)CCOc1ccc2c(c1)OCO2 (single isomer, unassigned; (+)) [Compound (70), (+)-2-(3,5-Di-tert-butyl-4-hydroxyphenyl)-3-[3-[N-methyl-N-[2-(3,4-methylenedioxyphenoxy)ethyl]amino]propyl]-1,3-thiazolidin-4-one] |  | 15.2 |  | 21.1 | Percent (%) of Control (rabbit LDL [2]; 5 x 10^-6 M, 5 µM): 5.1%
CN(CCCN1C(=O)C(OCCO)SC1c1cc(C(C)(C)C)c(O)c(C(C)(C)C)c1)CCOc1ccc2c(c1)OCO2 (centres unmarked) [Compound (55)] |  |  |  | 20.0 | 
